Measurements taken from patent US20090076021A1, “THERAPEUTIC COMBINATIONS AND METHODS FOR CARDIOVASCULAR IMPROVEMENT AND TREATING CARDIOVASCULAR DISEASE” (priority 2006, published 2009).

Test system: Hypothyroid rats
Assay: Cardiac performance (Millar direct catheter system) in PTU-fed hypothyroid rats after 4 days of treatment
Format: in vivo, Male S.D. rats
Method: Male S.D. rats (7 wks old) were rendered hypothyroid by being fed PTU diet (n 48; iodine deficient, 0.15% propylthiouracil) or normal chow (n=8) for 2 weeks. PTU fed rats were then separated into weight-matched groups the day prior to inception of the study, and treated for 4 days with vehicle (0.05 mL/100 g BW i.p.; 20% Cremophor EL; 20% ethanol; 60% H2O) or T3 (3 μg/kg) and scriptaid (1.5, 15 mg/kg) or its vehicle (100% DMSO; 0.04 mL/100 g BW i.p.). Because of differential pharmacodynamics of T3 and scriptaid, each animal received T3 or its vehicle at least 3 hours prior to receiving scriptaid or its vehicle. Following 4 days of treatment, core temperature, systemic hemodynamics, and cardiac performance data were collected under isoflurane anesthesia using the Millar direct catheter system no less two hours following scriptaid administration. At the conclusion of the experiment the animals were sacrificed, and blood and tissues collected for morphological and biochemical analysis. Hypothyroid rats have impaired systolic and diastolic cardiac performance relative to euthyroid control rats, while scriptaid alone exerted no effects on either systolic or diastolic cardiac performance.

[1] = scriptaid (1.5, 15 mg/kg i.p.) coadministered with T3 (3 μg/kg), hypothyroid rats, compared with T3 alone

SMILES	maximal positive and negative dP/dt (indices of systolic and diastolic performance) (T3 3 μg/kg, hypothyroid (PTU diet) rats, FIG. 1)	tau (an index of myocardial relaxation) (T3 3 μg/kg, hypothyroid (PTU diet) rats, FIG. 2)	maximal +/−dP/dt [1]	tau [1]	systolic or diastolic cardiac performance (scriptaid alone (1.5, 15 mg/kg i.p.), hypothyroid (PTU diet) rats, isoflurane anesthesia)
N[C@@H](Cc1cc(I)c(Oc2ccc(O)c(I)c2)c(I)c1)C(=O)O [T3, triiodothyronine]	increased	improved	–	–	–
O=C(CCCCCN1C(=O)c2cccc3cccc(c23)C1=O)NO [scriptaid, 6-(1,3-Dioxo-1H,3H-benzo[de]isoquinolin-2-yl)-hexanoic acid hydroxyamide]	–	–	significantly enhanced the effects of T3 treatment	significantly enhanced the effects of T3 treatment	no effects
